In US9765075B2, “Substituted bridged urea analogs as sirtuin modulators” (GLAXOSMITHKLINE LLC, priority 2013, dated 2017):
Where two headings read alike, the source gives them in different places.

Biological target: T1, SIRT1 (Homo sapiens, UniProt Q96EB6)
T1 sequence (Q96EB6 1-747): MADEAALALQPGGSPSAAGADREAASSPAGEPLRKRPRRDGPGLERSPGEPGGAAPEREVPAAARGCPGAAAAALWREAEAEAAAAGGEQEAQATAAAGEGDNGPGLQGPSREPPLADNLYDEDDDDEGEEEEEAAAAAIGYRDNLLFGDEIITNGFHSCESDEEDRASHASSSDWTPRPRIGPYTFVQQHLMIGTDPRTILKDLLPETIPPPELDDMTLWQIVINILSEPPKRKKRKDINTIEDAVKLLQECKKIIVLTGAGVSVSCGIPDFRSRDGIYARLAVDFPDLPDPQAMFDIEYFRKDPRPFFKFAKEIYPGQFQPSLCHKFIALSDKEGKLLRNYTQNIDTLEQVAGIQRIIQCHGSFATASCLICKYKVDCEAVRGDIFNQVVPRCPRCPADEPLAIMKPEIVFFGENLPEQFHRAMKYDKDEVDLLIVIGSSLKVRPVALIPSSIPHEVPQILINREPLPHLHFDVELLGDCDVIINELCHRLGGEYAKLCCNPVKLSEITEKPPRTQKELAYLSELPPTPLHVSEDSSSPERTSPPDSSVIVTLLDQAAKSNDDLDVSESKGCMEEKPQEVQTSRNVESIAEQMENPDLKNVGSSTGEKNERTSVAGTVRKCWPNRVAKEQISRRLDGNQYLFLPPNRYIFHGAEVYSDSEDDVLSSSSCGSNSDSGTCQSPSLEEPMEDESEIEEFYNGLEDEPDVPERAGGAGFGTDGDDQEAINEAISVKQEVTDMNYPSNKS
Test: Trp mass spectrometry assay (SIRT1 activation)
Format: biochemical
Conditions: for Emax: percent maximum fold activation of SIRT1, read-out: Tryp % Fold Act
Procedure, shortened: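 N-His-tagged SIRT1 (10 nM), expressed in E. coli, was incubated with 0.5 μM Ac-RHKK(Ac)W-NH2 peptide and 120 μM NAD+ for 25 min at 25 °C in HEPES pH 7.5 with […]. The reaction was stopped with formic acid and O-acetyl-ADP-ribose or deacetylated peptide was quantified by mass spectrometry. Results are given as EC1.5 and percent maximal activation relative to DMSO control.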

[1] = concentration of test compound that results in 150% activation of SIRT1, Trp peptide substrate
[2] = Trp mass spectrometry assay, EC1.5 = concentration of test compound that results in 150% activation of SIRT1
[3] = Trp mass spectrometry assay, EC1.5 = concentration giving 150% activation of SIRT1

O=C(Nc1cccnc1)N1c2nc(-c3cncc(C(F)(F)F)c3)ccc2N2CCC[C@H]1C2 [Example 392]
Tryp AVG EC1.5 (μM) [1]: A (EC1.5<1 μM) | Emax (Trp peptide substrate): ≥ 150%

O=C(Nc1ccccn1)N1c2nc(-c3cncc(Cl)c3)ccc2N2CC[C@H]1C2 [Example 260]
Tryp AVG EC1.5 (μM) [1]: A (EC1.5<1 μM) | Emax (Trp peptide substrate): ≥ 150%

Cc1csc2nc(NC(=O)N3c4nc(-c5cccc(C(F)(F)F)c5)ccc4N4CC[C@H]3C4)nn12 [Example 80]
Emax (Trp mass spectrometry assay): ≥ 150%

O=C(O)c1cc(NC(=S)NCc2ccc(NC(=O)N3c4nc(-c5cccc(C(F)(F)F)c5)ccc4N4CCC[C@H]3C4)cc2)ccc1-c1c2ccc(=O)cc-2oc2cc(O)ccc12 [Example 563]
Tryp AVG EC1.5 (μM) [1]: A (EC1.5<1 μM) | Emax (Trp peptide substrate): ≥ 150%

CCn1ncc2c(NC(=O)N3c4nc(-c5cccc(C(F)(F)F)c5)ccc4N4CC[C@H]3C4)cccc21 [81 (9)]
Tryp AVG EC1.5 (μM) [2]: A (EC1.5<1 μM) | Emax (Trp mass spectrometry assay): ≥ 150%

O=C(Nc1ccncn1)N1c2nc(-c3cncc(Cl)c3)ccc2N2CC[C@H]1C2 [Example 249]
Tryp AVG EC1.5 (μM) [1]: B (EC1.5 1-25 μM) | Emax (Trp peptide substrate): ≥ 150%

O=C(Nc1cccnc1)N1c2nc(-c3cnn(C4CCCC4)c3)ccc2N2CC[C@H]1C2 [Example 587]
Tryp AVG EC1.5 (μM) [1]: B (EC1.5 1-25 μM) | Emax (Trp peptide substrate): ≥ 150%

O=C(Nc1cc(-c2cnco2)ccn1)N1c2nc(-c3cccc(Cl)c3)ccc2N2C[C@@H](O)[C@H]1C2 [Example 685]
Tryp AVG EC1.5 (μM) [3]: B (EC1.5 1-25 μM) | Emax (Trp mass spectrometry assay): ≥ 150%

COc1nccc(NC(=O)N2c3nc(-c4cccc(C#N)c4)ccc3N3CC[C@H]2C3)n1 [Example 183]
Tryp AVG EC1.5 (μM) [2]: B (EC1.5 1-25 μM) | Emax (Trp mass spectrometry assay): ≥ 150%

O=C(Nc1ccc(F)cn1)N1c2nc(-c3cccc(Cl)c3)ccc2N2CC[C@H]1C2 [Example 43]
Emax (Trp mass spectrometry assay): ≥ 150%

O=C(Nc1ncc(-c2ccccc2)s1)N1c2nc(-c3cccc(C(F)(F)F)c3)ccc2N2CC[C@H]1C2 [Example 734]
Tryp AVG EC1.5 (μM) [3]: B (EC1.5 1-25 μM) | Emax (Trp mass spectrometry assay): ≥ 150%

O=C(Nc1cccc(-c2cnco2)n1)N1c2nc(-c3cncc(C(F)(F)F)c3)ccc2N2C[C@@H](O)[C@H]1C2 [Example 703]
Tryp AVG EC1.5 (μM) [3]: A (EC1.5<1 μM) | Emax (Trp mass spectrometry assay): ≥ 150%

COc1cncc(-c2ccc3c(n2)N(C(=O)Nc2ccccn2)[C@H]2CCN3C2)c1 [Example 346]
Tryp AVG EC1.5 (μM) [1]: B (EC1.5 1-25 μM) | Emax (Trp peptide substrate): ≥ 150%

NCc1ncc(-c2cccc(NC(=O)N3c4nc(-c5cccc(C(F)(F)F)c5)ccc4N4CC[C@H]3C4)c2)o1 [Example 725]
Tryp AVG EC1.5 (μM) [3]: A (EC1.5<1 μM) | Emax (Trp mass spectrometry assay): ≥ 150%

CC(C)(C)OC(=O)NCCNC(=N)c1ccc(NC(=O)N2c3nc(-c4cccc(C(F)(F)F)c4)ccc3N3CCC[C@H]2C3)cc1 [Example 788]
Tryp AVG EC1.5 (μM) [3]: A (EC1.5<1 μM) | Emax (Trp mass spectrometry assay): ≥ 150%

Cc1cncc(-c2ccc3c(n2)N(C(=O)Nc2ccccn2)[C@H]2CCN3C2)c1 [Example 325]
Tryp AVG EC1.5 (μM) [1]: A (EC1.5<1 μM) | Emax (Trp peptide substrate): ≥ 150%

COc1cc(NC(=O)N2c3nc(-c4ccnc(N5CCC(C(F)(F)F)C5)c4)ccc3N3CC[C@H]2C3)ncn1 (stereo partly shown) [Example 368]
Tryp AVG EC1.5 (μM) [1]: B (EC1.5 1-25 μM) | Emax (Trp peptide substrate): ≥ 150%

O=C(Nc1cc(-c2cnco2)ccn1)N1c2nc(-c3cncc(C(F)(F)F)c3)ccc2N2C[C@@H](O)[C@H]1C2 [Example 726]
Tryp AVG EC1.5 (μM) [3]: B (EC1.5 1-25 μM) | Emax (Trp mass spectrometry assay): < 150%

N#Cc1cccc(-c2ccc3c(n2)N(C(=O)Nc2ccc(F)cn2)[C@H]2CCN3C2)c1 [Example 130]
Tryp AVG EC1.5 (μM) [2]: A (EC1.5<1 μM) | Emax (Trp mass spectrometry assay): ≥ 150%

Cc1cc(-c2ccc3c(n2)N(C(=O)Nc2cnn(C)c2)[C@H]2CCN3C2)ccn1 [Example 482]
Tryp AVG EC1.5 (μM) [1]: B (EC1.5 1-25 μM) | Emax (Trp peptide substrate): ≥ 150%

O=C(Nc1cccnc1)N1c2nc(-c3cccc(N4CCCC4)c3)ccc2N2CC[C@H]1C2 [Example 192]
Tryp AVG EC1.5 (μM) [2]: B (EC1.5 1-25 μM) | Emax (Trp mass spectrometry assay): ≥ 150%

CS(=O)(=O)c1cncc(-c2ccc3c(n2)N(C(=O)Nc2cccnc2)[C@H]2CCCN3C2)c1 [Example 376]
Tryp AVG EC1.5 (μM) [1]: A (EC1.5<1 μM) | Emax (Trp peptide substrate): ≥ 150%

CCCn1cc(-c2cccc(NC(=O)N3c4nc(-c5cccc(C(F)(F)F)c5)ccc4N4CC[C@H]3C4)n2)cn1 [Example 656]
Tryp AVG EC1.5 (μM) [3]: A (EC1.5<1 μM) | Emax (Trp mass spectrometry assay): ≥ 150%

O=C(Nc1ccncn1)N1c2nc(N3CCCNCC3)ccc2N2CCC[C@H]1C2 [Example 420]
Tryp AVG EC1.5 (μM) [1]: C (EC1.5>25 μM) | Emax (Trp peptide substrate): < 150%

COc1cc(NC(=O)N2c3nc(-c4cncc(Cl)c4)ccc3N3CCC[C@H]2C3)ncn1 [Example 405]
Tryp AVG EC1.5 (μM) [1]: A (EC1.5<1 μM) | Emax (Trp peptide substrate): ≥ 150%

O=C(Nc1cccc(OC[C@H](O)CO)n1)N1c2nc(-c3cccc(C(F)(F)F)c3)ccc2N2CC[C@H]1C2 [Example 818]
Tryp AVG EC1.5 (μM) [3]: A (EC1.5<1 μM) | Emax (Trp mass spectrometry assay): ≥ 150%

Cn1cc(NC(=O)N2c3nc(-c4cccc(C#N)c4)ccc3N3CC[C@H]2C3)cn1 [Example 186]
Tryp AVG EC1.5 (μM) [2]: B (EC1.5 1-25 μM) | Emax (Trp mass spectrometry assay): ≥ 150%

N#Cc1ccccc1-c1ccc2c(n1)N(C(=O)Nc1cccnc1)[C@H]1CCCN2C1 [Example 438]
Tryp AVG EC1.5 (μM) [1]: B (EC1.5 1-25 μM) | Emax (Trp peptide substrate): ≥ 150%

N=C(N)NCc1ccc(NC(=O)N2c3nc(-c4cccc(C(F)(F)F)c4)ccc3N3CCC[C@H]2C3)cc1 [Example 777]
Tryp AVG EC1.5 (μM) [3]: A (EC1.5<1 μM) | Emax (Trp mass spectrometry assay): ≥ 150%

COc1ccc(-c2ccc3c(n2)N(C(=O)Nc2cnccn2)[C@H]2CCN3C2)cn1 [Example 399]
Tryp AVG EC1.5 (μM) [1]: B (EC1.5 1-25 μM) | Emax (Trp peptide substrate): ≥ 150%

N#Cc1cc(-c2ccc3c(n2)N(C(=O)Nc2ccccn2)[C@H]2CCN3C2)ccc1F [Example 341]
Tryp AVG EC1.5 (μM) [1]: A (EC1.5<1 μM) | Emax (Trp peptide substrate): ≥ 150%

O=C(Nc1ccc(F)cn1)N1c2nc(N3CCCC(C(F)(F)F)C3)ccc2N2CCC[C@@H]1C2 (stereo partly shown) [Example 362]
Tryp AVG EC1.5 (μM) [1]: C (EC1.5>25 μM) | Emax (Trp peptide substrate): ≥ 150%

COc1cc(NC(=O)N2c3nc(-c4cccc(C(F)(F)F)c4)ccc3N3CC[C@H]2C3)nc(OC)n1 [Example 22]
Emax (Trp mass spectrometry assay): ≥ 150%

CS(=O)(=O)c1ccc(-c2ccc3c(n2)N(C(=O)Nc2ccccn2)[C@H]2CCN3C2)cc1 [Example 326]
Tryp AVG EC1.5 (μM) [1]: B (EC1.5 1-25 μM) | Emax (Trp peptide substrate): ≥ 150%

Cc1nc(NC(=O)N2c3nc(C4CCCC(C(F)(F)F)C4)ccc3N3CC[C@H]2C3)sc1C (stereo partly shown) [Example 149]
Tryp AVG EC1.5 (μM) [2]: B (EC1.5 1-25 μM) | Emax (Trp mass spectrometry assay): ≥ 150%

Cn1nccc1-c1cccc(NC(=O)N2c3nc(-c4cccc(C(F)(F)F)c4)ccc3N3CC[C@H]2C3)n1 [Example 623]
Tryp AVG EC1.5 (μM) [1]: A (EC1.5<1 μM) | Emax (Trp peptide substrate): ≥ 150%

CS(=O)(=O)c1cncc(-c2ccc3c(n2)N(C(=O)Nc2cncc(F)c2)[C@H]2CCCN3C2)c1 [Example 377]
Tryp AVG EC1.5 (μM) [1]: A (EC1.5<1 μM) | Emax (Trp peptide substrate): ≥ 150%

O=C(Nc1ccc2c(c1)OCCCO2)N1c2nc(-c3cccc(C(F)(F)F)c3)ccc2N2CC[C@H]1C2 [Example 95]
Tryp AVG EC1.5 (μM) [2]: A (EC1.5<1 μM) | Emax (Trp mass spectrometry assay): ≥ 150%

Cc1ccncc1-c1ccc2c(n1)N(C(=O)Nc1cnccn1)[C@H]1CCCN2C1 [Example 513]
Tryp AVG EC1.5 (μM) [1]: C (EC1.5>25 μM) | Emax (Trp peptide substrate): ≥ 150%

CC1(CCC(=O)NCc2ccc(NC(=O)N3c4nc(-c5cccc(C(F)(F)F)c5)ccc4N4CC[C@H]3C4)cc2)N=N1 [Example 548]
Tryp AVG EC1.5 (μM) [1]: B (EC1.5 1-25 μM) | Emax (Trp peptide substrate): ≥ 150%

CS(=O)(=O)c1cncc(-c2ccc3c(n2)N(C(=O)Nc2cccnn2)[C@H]2CCCN3C2)c1 [Example 380]
Tryp AVG EC1.5 (μM) [1]: A (EC1.5<1 μM) | Emax (Trp peptide substrate): ≥ 150%
